Data from patent publication US20130184251A1, “HETEROAROMATIC AND AROMATIC PIPERAZINYL AZETIDINYL AMIDES AS MONOACYLGLYCEROL LIPASE INHIBITORS” (Janssen Pharmaceutica, NV, priority 2009, published 2013).
Where two headings read alike, the source gives them in different places.

Test system: HeLa cells
Test: 2-AG accumulation assay using HeLa cells
Assay type: cell-based
Conditions: for Emax at 10 µM: Homo sapiens; for Ex. 5 % MAFP @10 μM: 10 μM compound
[1] = HeLa cell homogenate, 2-AG accumulation relative to MAFP, compound @10 μM (second of two columns with the same head), read-out: Ex. 5 % MAFP @10 μM (second column)
[2] = HeLa cell homogenate, 2-AG accumulation relative to MAFP, compound @10 μM as printed (first of two columns with the same head), read-out: Ex. 5 % MAFP @10 μM (first column)
[3] = 2-AG relative to MAFP, HeLa homogenate

| SMILES | Emax at 10 µM [1] [%] | other results |
| --- | --- | --- |
| O=C(Nc1ccc(C(=O)N2CC(N3CCN(c4ccccn4)CC3)C2)cc1)C1CCCCC1 [compound 27, N-(4-{[3-(4-Pyridin-2-ylpiperazin-1-yl)azetidin-1-yl]carbonyl}phenyl)cyclohexanecarboxamide] | 110 | Emax at 10 µM [2]: 66.2% |
| O=C(c1ccc(-c2ccc(F)cc2)cc1)N1CC(N2CCN(c3ncccn3)CC2)C1 [compound 9, 2-(4-{1-[(4′-Fluorobiphenyl-4-yl)carbonyl]azetidin-3-yl}piperazin-1-yl)pyrimidine] | 81 |  |
| O=C(c1ccc(Oc2ccccc2)cc1)N1CC(N2CCN(c3ncccn3)CC2)C1 [Compound #20, 2-(4-{1-[(4-Phenoxyphenyl)carbonyl]azetidin-3-yl}piperazin-1-yl)pyrimidine] | 71.9 |  |
| O=C(c1ccc(N2CCCC2)cc1)N1CC(N2CCN(c3ncccn3)CC2)C1 [Compound #2, 2-(4-{1-[(4-Pyrrolidin-1-ylphenyl)carbonyl]azetidin-3-yl}piperazin-1-yl)pyrimidine] | 105 |  |
| O=C(/C=C/c1ccc(SC(F)(F)F)cc1)N1CC(N2CCN(c3ccccn3)CC2)C1 [compound 41, 1-Pyridin-2-yl-4-{1-[(2E)-3-(4-[(trifluoromethyl)sulfanyl]phenyl}prop-2-enoyl]azetidin-3-yl}piperazine] | 66.8 |  |
| O=C(c1cccc(-c2ccc(F)cc2)c1)N1CC(N2CCN(c3ccccn3)CC2)C1 [compound 52, 1-{1-[(4′-Fluorobiphenyl-3-yl)carbonyl]azetidin-3-yl}-4-pyridin-2-ylpiperazine] | 52.2 | Emax at 10 µM [2]: 28% |
| O=C(c1cccc2c1Cc1ccccc1-2)N1CC(N2CCN(c3ccccn3)CC2)C1 [compound 96, 1-[1-(9H-Fluoren-1-ylcarbonyl)azetidin-3-yl]-4-pyridin-2-ylpiperazine] | 0 |  |
| CN(CC1CCCCC1)c1ccc(CCC(=O)N2CC(N3CCN(c4ccccn4)CC3)C2)cc1 [compound 40, N-(Cyclohexylmethyl)-N-methyl-4-{3-oxo-3-[3-(4-pyridin-2-ylpiperazin-1-yl)azetidin-1-yl]propyl}aniline] | 90.4 | Emax at 10 µM [2]: 77.3% |
| CN(c1ccc(C(=O)N2CC(N3CCN(c4ccccn4)CC3)C2)cc1)C1CCCCC1 [Compound #1, N-Cyclohexyl-N-methyl-4-{[3-(4-pyridin-2-ylpiperazin-1-yl)azetidin-1-yl]carbonyl}aniline] | 70.5 |  |
| O=C(c1ccccc1)c1cccc(C(=O)N2CC(N3CCN(c4ccccn4)CC3)C2)c1 [compound 86, Phenyl(3-{[3-(4-pyridin-2-ylpiperazin-1-yl)azetidin-1-yl]carbonyl}phenyl)methanone] | 10.4 |  |
| CCN(CC)c1ccc(C(=O)N2CC(N3CCN(c4ccccn4)CC3)C2)cc1 [compound 37, N,N-Diethyl-4-{[3-(4-pyridin-2-ylpiperazin-1-yl)azetidin-1-yl]carbonyl}aniline] | 65.9 | Emax at 10 µM [2]: 32% |
| Cc1nc2cc(C(=O)N3CC(N4CCN(c5ncccn5)CC4)C3)ccc2n1C1CCCCC1 [compound 17, 1-Cyclohexyl-2-methyl-5-{[3-(4-pyrimidin-2-ylpiperazin-1-yl)azetidin-1-yl]carbonyl}-1H-benzimidazole] | 83.9 |  |
| O=C(c1ccc2nc(C3CCCCC3)oc2c1)N1CC(N2CCN(c3ncccn3)CC2)C1 [compound 10, 2-Cyclohexyl-6-{[3-(4-pyrimidin-2-ylpiperazin-1-yl)azetidin-1-yl]carbonyl}-1,3-benzoxazole] | 115 | Emax at 10 µM [2]: 97.8% |
| O=C(c1ccc(-c2cccc(C(F)(F)F)c2)cc1)N1CC(N2CCN(c3ncccn3)CC2)C1 [compound 4, 2-[4-(1-{[3′-(Trifluoromethyl)biphenyl-4-yl]carbonyl}azetidin-3-yl)piperazin-1-yl]pyrimidine] | 112 |  |
| O=C(c1ccc(Cc2ccccc2)cc1)N1CC(N2CCN(c3ccccn3)CC2)C1 [compound 30, 1-{1-[(4-Benzylphenyl)carbonyl]azetidin-3-yl}-4-pyridin-2-ylpiperazine] | 37.3 | Emax at 10 µM [2]: 34.7% |
| O=C(c1ccccc1)c1ccc(C(=O)N2CC(N3CCN(c4ccccn4)CC3)C2)cc1 [compound 74, Phenyl(4-{[3-(4-pyridin-2-ylpiperazin-1-yl)azetidin-1-yl]carbonyl}phenyl)methanone] | 29.5 |  |
| Cc1c(C(=O)N2CC(N3CCN(c4ccccn4)CC3)C2)nn(-c2ccc(Cl)cc2Cl)c1-c1ccc(Cl)cc1 [compound 39, 1-(1-{[5-(4-Chlorophenyl)-1-(2,4-dichlorophenyl)-4-methyl-1H-pyrazol-3-yl]carbonyl}azetidin-3-yl)-4-pyridin-2-ylpiperazine] |  | Emax at 10 µM (HeLa, read-out: Ex. 5 % MAFP @10 μM): 87.6% |
| O=C(c1ccc(N2CCCCCC2)cc1)N1CC(N2CCN(c3ccccn3)CC2)C1 [compound 3, 1-(4-{[3-(4-Pyridin-2-ylpiperazin-1-yl)azetidin-1-yl]carbonyl}phenyl)azepane] | 67.3 |  |
| O=C(c1ccc(C2CCCCC2)cc1)N1CC(N2CCN(c3noc4ccccc34)CC2)C1 [compound 33, 3-(4-{1-[(4-Cyclohexylphenyl)carbonyl]azetidin-3-yl}piperazin-1-yl)-1,2-benzisoxazole] | 33 | Emax at 10 µM [2]: 17.5% |

| SMILES | Emax at 10 µM [1] [%] | other results |
| --- | --- | --- |
| CN(c1ccccc1)c1ccc(C(=O)N2CC(N3CCN(c4ccccn4)CC3)C2)cc1 [compound 18, N-Methyl-N-phenyl-4-{[3-(4-pyridin-2-ylpiperazin-1-yl)azetidin-1-yl]carbonyl}aniline] | 66.2 |  |
| O=C(c1ccc(Cc2ccccc2)cc1)N1CC(N2CCN(c3ncccn3)CC2)C1 [compound 24, 2-(4-{1-[(4-Benzylphenyl)carbonyl]azetidin-3-yl}piperazin-1-yl)pyrimidine] | 81.9 |  |
| CN(C)c1ccc(C(=O)N2CC(N3CCN(c4ncccn4)CC3)C2)cc1 [compound 28, N,N-Dimethyl-4-{[3-(4-pyrimidin-2-ylpiperazin-1-yl)azetidin-1-yl]carbonyl}aniline] | 82.2 |  |
| O=C(c1ccc(OCc2ccccc2)cc1)N1CC(N2CCN(c3ccccn3)CC2)C1 [compound 112, 1-(1-{[4-(Benzyloxy)phenyl]carbonyl}azetidin-3-yl)-4-pyridin-2-ylpiperazine] | 79.2 |  |
| O=C(c1ccc(-c2ccccc2)c(F)c1)N1CC(N2CCN(c3ccccn3)CC2)C1 [compound 60, 1-{1-[(2-Fluorobiphenyl-4-yl)carbonyl]azetidin-3-yl}-4-pyridin-2-ylpiperazine] | 57.8 | Emax at 10 µM [2]: 28.2% |
| O=C(Cc1ccc(-c2ccccc2)cc1)N1CC(N2CCN(c3ccccn3)CC2)C1 [compound 88, 1-[1-(Biphenyl-4-ylacetyl)azetidin-3-yl]-4-pyridin-2-ylpiperazine] | 2.8 |  |
| O=C(c1ccc(OCc2ccccc2)cc1)N1CC(N2CCN(c3ncccn3)CC2)C1 [compound 111, 2-[4-(1-{[4-(Benzyloxy)phenyl]carbonyl}azetidin-3-yl)piperazin-1-yl]pyrimidine] | 106 |  |
| CCCn1ccc2cc(C(=O)N3CC(N4CCN(c5ccccn5)CC4)C3)ccc21 [compound 31, 1-Propyl-5-{[3-(4-pyridin-2-ylpiperazin-1-yl)azetidin-1-yl]carbonyl}-1H-indole] | 69.5 |  |
| CC(C)(C)c1nc2ccc(C(=O)N3CC(N4CCN(c5ccccn5)CC4)C3)cc2o1 [Compound #209] |  | Ex. 5 % MAFP @ 1 μM (1 μM compound, 2-AG relative to MAFP, HeLa homogenate): 19.9 % MAFP; Ex. 5 % MAFP @10 μM [3]: 47.3 % MAFP |
| Cc1nc2cc(C(=O)N3CC(N4CCN(c5ncccn5)CC4)C3)ccc2n1-c1ccccc1 [compound 14, 2-Methyl-1-phenyl-5-{[3-(4-pyrimidin-2-ylpiperazin-1-yl)azetidin-1-yl]carbonyl}-1H-benzimidazole] | 106 |  |
| N#Cc1cccnc1N1CCN(C2CN(C(=O)c3ccc(-c4ccccc4)cc3)C2)CC1 [compound 23, 2-(4-[1-(Biphenyl-4-ylcarbonyl)azetidin-3-yl]piperazin-1-yl}pyridine-3-carbonitrile] | 96.8 |  |
| CC(C)n1c(C(F)(F)F)nc2cc(C(=O)N3CC(N4CCN(c5ncccn5)CC4)C3)ccc21 [compound 16, 1-(1-Methylethyl)-5-{[3-(4-pyrimidin-2-ylpiperazin-1-yl)azetidin-1-yl]carbonyl}-2-(trifluoromethyl)-1H-benzimidazole] | 91.5 |  |
| COc1cccc(-c2nc3cc(C(=O)N4CC(N5CCN(c6ccccn6)CC5)C4)ccc3o2)c1 [Compound #216] |  | Ex. 5 % MAFP @10 μM [3]: 86.9 % MAFP |
| O=C(c1ccc(C2CCCCC2)cc1)N1CC(N2CCN(c3ccccn3)CC2)C1 [compound 15, 1-{1-[(4-Cyclohexylphenyl)carbonyl]azetidin-3-yl}-4-pyridin-2-ylpiperazine] | 47.6 |  |
| CC(C)Cn1c(-c2ccccc2)cc2cc(C(=O)N3CC(N4CCN(c5ccccn5)CC4)C3)ccc21 [Compound #214] |  | Ex. 5 % MAFP @10 μM [3]: 93.5 % MAFP |
| COc1ccc(-c2nc3cccc(C(=O)N4CC(N5CCN(c6ccccn6)CC5)C4)c3o2)cc1 [Compound #210] |  | Ex. 5 % MAFP @10 μM [3]: 79.5 % MAFP |
| O=C(c1ccc(-n2cccc2)cc1)N1CC(N2CCN(c3ncccn3)CC2)C1 [compound 25, 2-[4-(1-{[4-(1H-Pyrrol-1-yl)phenyl]carbonyl}azetidin-3-yl)piperazin-1-yl]pyrimidine] | 87.7 |  |
| CC(C)(C)OC(=O)N1CCC(c2ccc(C(=O)N3CC(N4CCN(c5ccccn5)CC4)C3)cc2)CC1 [compound 122, tert-Butyl 4-(4-{[3-(4-pyridin-2-ylpiperazin-1-yl)azetidin-1-yl]carbonyl}phenyl)piperidine-1-carboxylate] | 67.8 |  |
| N#Cc1cccnc1N1CCN(C2CN(C(=O)c3ccc(C4CCCCC4)cc3)C2)CC1 [Compound #21, 2-(4-{1-[(4-Cyclohexylphenyl)carbonyl]azetidin-3-yl}piperazin-1-yl)pyridine-3-carbonitrile] | 79.5 |  |
